Patent US20030129677A1, “Diagnostic method for screening complement regulatory protein levels” (priority 2000, published 2003)

Test system: DAF (CD55) on MCF-7 breast cancer cells
Test: TNF-α modulation of DAF (CD55) on MCF-7 breast cancer cells (western blot, densitometry)
Type: cell-based
Conditions: MCF-7 cells, different concentrations of recombinant TNF-α for 18 hours
Method: Estrogen primed and unprimed MCF-7 cells were treated with different concentrations of recombinant TNF-α for 18 hours. Estrogen primed cells were treated overnight with 20 ng/ml β estradiol. DAF protein was extracted by lysis treatment of cells and quantitated, run on SDS-PAGE followed by western blot analysis using anti DAF antibody. Bands were visualized by ECL method (Amersham). DAF levels were quantitated densitometrically and expressed as densitometric units.

TNF-α
DAF (CD55) expression (estrogenized conditions (primed overnight with 20 ng/ml β estradiol), FIG. 5): upregulated CD55 in a dose dependent manner
DAF (CD55) expression (nonestrogenized conditions): downregulated expression of CD55 in a dose dependent manner
